14 molecules from PubChem BioAssay (NCI) can be followed below.

Each structure is given as a SMILES string.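 Cultured in 96-well plates, cells were exposed to test compound for 48 hours across five concentrations. TGI is the concentration that stops growth completely.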 Bounds are passed on as bounds.

What all share (assay): DTP human tumour cell line panel, 48 h
The test system of test [1] is ACHN renal.
For test [2], the system named is HL-60(TB) leukemia.
The test system of test [3] is HS 578T breast.
In test [4] the test system is MCF7 breast.
Test [5] deals with NCI-H460 lung.
In test [6] the test system is OVCAR-5 ovarian.
Test [7] deals with RXF 393 renal.
Test [8] concerns SW-620 colon.
Test [9] deals with UACC-62 melanoma.
Test [10] deals with SK-OV-3 ovarian.

The term TGI denotes the concentration at which net growth stops. Take `CC(C(O)c1ccccc1)[N+](=O)[O-]` (stereo not drawn): the TGI in test [1] is 33.7 µM; in [2] it was 44.6 µM; in test [3] it was 98.7 µM; in [4] it was 40.1 µM; in test [5], over 100 µM; in test [6], 65.6 µM. Also, the TGI in test [7] was 27.7 µM; in test [8], over 100 µM; in [9] it was 37.2 µM.

As for `O=C(O)c1ccc(/C=N\N(CCO)C2=NCCN2)cc1`, the TGI in [1], in [2], in test [3], in test [4], in test [5] and in [6] was over 100 µM each time. For the same molecule, the concentration for total growth inhibition (TGI) in test [7], in test [10], in [8] and in test [9] was over 100 µM throughout.

Consider `COc1ccc(CCNC(=S)/N=C\C2=C(O)c3ccccc3C2=O)cc1OC`, for which the TGI in test [1] is over 100 µM; in test [2], over 100 µM; in test [3], 72.7 µM; in test [4], over 100 µM; in test [6] it was over 100 µM; in [7], over 100 µM. Further, the concentration for total growth inhibition (TGI) in test [10], in [8] and in [9] was over 100 µM in each case.

Regarding `CC1(C)OCC(C2OC(=O)C(OCc3ccccc3)=C2OCc2ccccc2)O1` (stereo not drawn), the TGI in [1] is over 100 µM; in test [2] it was 52 µM; in [3] it was over 100 µM; in test [4], over 100 µM; in [5] it was over 100 µM; in [6], over 100 µM. The TGI in test [7], in [10], in [8] and in test [9] was over 100 µM throughout.

For `CS(=O)(=O)OC1CCN(C2(c3cccc(O)c3)CCCCC2)CC1`, the TGI in test [1] was over 100 µM; in test [2], 38.2 µM; in test [3] it was over 100 µM; in test [4], over 100 µM; in test [5], over 100 µM; in [6], over 100 µM. Further, the TGI in [7], in [10], in [8] and in test [9] was over 100 µM throughout.

Regarding `CN1CCN(c2ccc3nc(-c4ccc5nc(-c6ccc(N(C)CCCl)cc6)[nH]c5c4)[nH]c3c2)CC1`, the TGI was 5.97 µM in test [1]; over 100 µM in test [2]; 0.58 µM in [3]; 0.56 µM in test [4]; 5.14 µM in test [5]; 12.4 µM in test [6]. Also, the concentration for total growth inhibition (TGI) stood at 0.501 µM in test [7], 1.2 µM in [10], 1.22 µM in [8] and 1.05 µM in test [9].

Turning to `CCC(C)N1CN(c2ccccc2)C2(CCN(CCCC(=O)c3ccc(F)cc3)CC2)C1=O` (stereo not drawn), the total growth inhibition concentration (TGI) in test [1] was 9.73 µM; in test [2], 46 µM; in test [3], 36.4 µM; in test [4], 11.5 µM; in test [6], 8.12 µM; in [7], 30 µM. Moreover, the TGI in test [10] was 21.5 µM; in [8] it was 16 µM; in test [9] it was 32.9 µM.

With `CC(=O)O[C@H]1CC[C@H]2[C@@H]3CC[C@H]4Nc5c(cnn5S(C)(=O)=O)C[C@]4(C)[C@H]3CC[C@]12C`, the concentration for total growth inhibition (TGI) in [2] is over 100 µM; in test [3], over 100 µM; in test [4] it was 82.4 µM; in test [5] it was over 100 µM; in [6], over 100 µM; in test [7], over 100 µM. Also, the TGI in test [10] and in test [9] was over 100 µM throughout.

As to `CCCCCCCCC[C@@H]1C[C@@H]2CCC3C(C(=O)OCCCCNC(=O)OCc4ccccc4)=C(C)NC(=N1)N32` (stereo partly drawn), the TGI in test [1] stood at 12.2 µM; in [2] it was 4.01 µM; in test [3] it was 5.48 µM; in [4] it was 4.72 µM; in test [5] it was 13.3 µM; in test [6], 21.4 µM. Also, the TGI in test [7] was 7.34 µM; in [10], 8.74 µM; in [8] it was 14.2 µM; in test [9], 13.7 µM.

For the molecule `O=S(=O)(Nc1nc(-c2cc(O)c(O)c(O)c2)cs1)c1ccc(Cl)cc1Cl`, the TGI in [1] was 28.1 µM; in test [2], over 100 µM; in test [3] it was 53.6 µM; in test [4], 36.1 µM; in test [5] it was 38.6 µM; in [6] it was 33.4 µM. The TGI in [7] was 71.4 µM; in [10] it was over 100 µM; in [8], 37.5 µM; in test [9] it was over 100 µM.

As for `CCCCCCCCCCOC1C(C(C)OCCCN(C)C)OC2OC3(CCCCC3)OC21` (stereo not drawn), the concentration for total growth inhibition (TGI) in test [1] worked out at 31.4 µM; in [2], 20.7 µM; in test [3], 35.8 µM; in test [4], 42.8 µM; in test [5], 22.7 µM; in [6], 25.2 µM. Besides, the TGI in test [7] is 31 µM; in test [10], 32.7 µM; in test [8], 27.1 µM; in test [9] it was 26.2 µM.

`O=C1CSC(c2c(O)ccc3ccccc23)N1n1c(=S)[nH]nc(/C=C/c2c(O)ccc3ccccc23)c1=O` (stereo not drawn): the TGI in [1] was 11.2 µM; in test [2] it was 0.874 µM; in [3], over 100 µM; in test [4] it was 18.9 µM; in test [5] it was 11.5 µM; in [6] it was 38.1 µM. Also, the TGI was 13.7 µM in test [7], 52.1 µM in [8] and 10.1 µM in [9].

Turning to `CC1(C)C(C(=O)OC(C#N)c2cccc(OCC(=O)OCc3ccccc3)c2)C1(C)C` (stereo not drawn), the TGI is over 100 µM in test [1]; 22.9 µM in test [2]; over 100 µM in test [3]; over 100 µM in test [4]; over 100 µM in test [5]; over 100 µM in test [6]. Moreover, the concentration for total growth inhibition (TGI) in test [7], in [10], in [8] and in test [9] was over 100 µM each time.

For `CC(=N\N=C\c1ccccn1)/C(C)=N/N=C/c1ccccn1`, the TGI in test [1], in test [2], in [3], in test [4], in [5] and in [6] was over 100 µM throughout. Also, the total growth inhibition concentration (TGI) in test [7], in test [10] and in test [8] was over 100 µM in each case.
